Results as given in patent US8604023B2, “1,4-benzodiazepinone compounds and their use in treating cancer” (The Regents of the University of Michigan, priority 2009, dated 2013).

Legend:
Assay in all cases: cancer cell growth inhibition (SRB)
Type in all cases: cell-based, human
COLO 205 = details: Colon Cancer
RPMI-8226 = details: Leukemia
MOLT-4 = details: Leukemia
CCRF-CEM = details: Leukemia
K-562 = details: Leukemia
UACC-62 = details: Melanoma
HCT-116 = details: Colon Cancer
MDA-MB-468 = details: Breast Cancer
Excerpt: The compounds described herein can be tested for activity against various forms of cancer by testing for inhibition of cancer cell growth using in vitro assays. For example, compounds V-23 and V-38 (See Table 5 in Example 26) where tested for efficacy in inhibiting the growth of human cancer cells using the general procedure described below. The test evaluated compound activity for inhibiting cancer cell growth in over 50 cancer cell lines, which included non-small cell lung cancer, colon cancer, breast cancer, ovarian cancer, leukemia, renal cancer, melanoma, prostate cancer, and cancer of the central nervous system tissue. […]
Following addition of the test compound, the plates are incubated for an additional 48 h at 37° C., 5% CO2, 95% air, and 100% relative humidity. […] Bound stain is then solubilized with 10 mM trizma base, and the absorbance is read on an automated plate reader at a wavelength of 515 nm. […] Using seven absorbance measurements [time zero, (Tz), control growth, (C), and test growth in the presence of drug at the five concentration levels (Ti)], the percentage growth is calculated at each of the drug concentrations levels.
The percentage of growth inhibition caused by the test compounds on the cancer cell lines can be calculated using the following formulae: [(Ti−Tz)/(C−Tz)]×100 for concentrations for which Ti≧Tz [(Ti−Tz)/Tz]×100 for concentrations for which Ti<Tz

HT29 = details: Colon Cancer

In the case of CN1C(=O)C(Cc2ccc3ccccc3c2)N=C(c2cn[nH]c2)c2cc(Cl)ccc21 (stereo not drawn) [Compound V-38], the “growth inhibition of the cancer cells” value (COLO 205) is reported as “++ (40%-75% growth inhibition of the cancer cells)”, the “growth inhibition of the cancer cells” value (RPMI-8226) is reported as “+ (less than 40% growth inhibition of the cancer cells)” and the “growth inhibition of the cancer cells” value (MOLT-4) is reported as “+ (less than 40% growth inhibition of the cancer cells)”. For the same compound, the “growth inhibition of the cancer cells” value (CCRF-CEM) was “+ (less than 40% growth inhibition of the cancer cells)”, the “growth inhibition of the cancer cells” value (K-562) was “+ (less than 40% growth inhibition of the cancer cells)” and the “growth inhibition of the cancer cells” value (UACC-62) was “+++ (at least 75% growth inhibition of the cancer cells)”. For the same compound, the “growth inhibition of the cancer cells” value (HCT-116) was “+++ (at least 75% growth inhibition of the cancer cells)”, the “growth inhibition of the cancer cells” value (MDA-MB-468) was “++ (40%-75% growth inhibition of the cancer cells)” and the “growth inhibition of the cancer cells” value (HT29) was “+ (less than 40% growth inhibition of the cancer cells)”.
